Test system: RPE cells
Experiment: Phagocytosis of RPE: FITC-ROS uptake, fluorescence intensity (total; ingestion with fluoro Quench dye)
Type: cell-based
Conditions: for effect on the total phagocytosis of RPE: 0.1, 1, 10, 100 μg/ml, 24 hrs treatment in 2% FCS DMEM, then FITC-ROS 4 hrs, compared with 2% FCS; for effect on the phagocytosis of RPE (total and ingestion, FIGS. 8-15): summary based on FIGS. 8-15
Method: 1×10^4 RPE cells are seeded in 96-well microplate per well, containing 5% FCS in DMEM after 48 hrs, and the medium is changed with 2% FCS in DMEM. Then different concentrations of DCMPbL6,7D2H2H3 are added respectively. After 24 hrs, 50 μl of 2×10^7 FITC-ROS/ml is added into each well. Four hours later, the unbounded FITC-ROS is washed out with PBS+2% sucrose. The emission wavelength is 485 nm and the detecting wavelength is 530 nm. The fluorescence intensity is detected by a 1420 Multilable counter (PE) measurement system. The detected fluorescence intensity represents the total phagocytosis. If the fluoro Quench dye is added, the detected fluorescence intensity represents the ingestion phagocytosis. *P<0.05, **P<0.02, ***P<0.01 and ****P<0.001 are obtained by comparing with phagocytosis of RPE treated with 2% FCS.
1×10^4 RPE cells are seeded in 96-well microplate per well, containing 5% FCS in DMEM after 48 hrs, and the medium is changed with 2% FCS in DMEM. Then different concentrations of DCMPbL6,7D2H2H3H2 are added respectively. After 24 hrs, 50 μl of 2×10^7 FITC-ROS/ml is added into each well. Four hours later, the unbounded FITC-ROS is washed out with PBS+2% sucrose. The emission wavelength is 485 nm and the detecting wavelength is 530 nm. The fluorescence intensity is detected by a 1420 Multilable counter (PE) measurement system. The detected fluorescence intensity represents the total phagocytosis. If the fluoro Quench dye is added, the detected fluorescence intensity represents the ingestion phagocytosis. *P<0.05, **P<0.02, ***P<0.01 and ****P<0.001 are obtained by comparing with phagocytosis of RPE treated with 2% FCS.
1×10^4 RPE cells are seeded in 96-well microplate per well, containing 5% FCS in DMEM after 48 hrs, and the medium is changed with 2% FCS in DMEM. Then different concentrations of DCMPbL6,7D2H2H3H3 are added respectively. After 24 hrs, 50 μl of 2×10^7 FITC-ROS/ml is added into each well. Four hours later, the unbounded FITC-ROS is washed out with PBS+2% sucrose. The emission wavelength is 485 nm and the detecting wavelength is 530 nm. The fluorescence intensity is detected by a 1420 Multilable counter (PE) measurement system. The detected fluorescence intensity represents the total phagocytosis. If the fluoro Quench dye is added, the detected fluorescence intensity represents the ingestion phagocytosis. *P<0.05, **P<0.02, ***P<0.01 and ****P<0.001 are obtained by comparing with phagocytosis of RPE treated with 2% FCS.
1×10^4 RPE cells are seeded in 96-well microplate per well, containing 5% FCS in DMEM after 48 hrs, and the medium is changed with 2% FCS in DMEM. Then different concentrations of DCMPbL6,7D2H2H3H4 are added respectively. After 24 hrs, 50 μl of 2×10^7 FITC-ROS/ml is added into each well.

SMILES | effect on the total phagocytosis of RPE | effect on the phagocytosis of RPE (total and ingestion, FIGS. 8-15)
O=c1cc(-c2ccc(O)cc2)oc2c([C@@H]3OC[C@H](O)[C@H](O)[C@H]3O)c(O)c([C@@H]3OC[C@H](O)[C@H](O)[C@H]3O)c(O)c12 [DCMPbL6,7D2H2H3H3, apigenin 6,8-Di-C-α-L-arabinopyranoside] | can accelerate the phagocytosis of RPE | could accelerate the phagocytosis of RPE
O=c1cc(-c2ccc(O)cc2)oc2c([C@@H]3OC[C@@H](O)[C@@H](O)[C@@H]3O)c(O)c([C@@H]3OC[C@H](O)[C@H](O)[C@H]3O)c(O)c12 [DCMPbL6,7D2H2H3H4, apigenin 6-C-α-L-Arabinopyranosyl-8-C-β-D-arabinopyranoside] | can accelerate the phagocytosis of RPE | could accelerate the phagocytosis of RPE
O=c1cc(-c2ccc(O)cc2)oc2c([C@@H]3OC[C@H](O)[C@H](O)[C@H]3O)c(O)c([C@@H]3OC[C@@H](O)[C@H](O)[C@H]3O)c(O)c12 [DCMPbL6,7D2H2H3H2, apigenin 6-C-β-D-Xylopyranosyl-8-C-α-L-arabinopyranoside] | can accelerate the phagocytosis of RPE | could accelerate the phagocytosis of RPE

From patent publication US8426371B2, “Biologically active extract from Dendrobium plant, use thereof and process for preparing the same” (National Yang-Ming University, priority 2007, dated 2013)
